This is an account of results in patent publication EP2842965A1, “Neuromedin U analogs comprising serum albumin binding amino acid residue” (Gubra ApS, priority 2013, dated 2015).

For this test, the target named is T1, Neuromedin U receptor 2 (NMUR2) (Homo sapiens, UniProt Q9GZQ4).
T1 construct: expressed in transfected cells; host or cells: HEK293 cells, transient calcium phosphate transfection; the empty-vector control is pcDNA3
The experiment in a line: Functional assay (IP3 SPA-ysi assay) in HEK293 cells transfected with NMUR2. In kind it is cell-based. The settings on record: HEK293 cells transiently transfected with NMUR2; head says cAMP, method describes IP3 SPA readout. How it is done: All compounds were dissolved in dimethyl sulfoxide (DMSO), and then water was added (total DMSO conc. was 80%). The stock concentration was 1 mM for all the compounds. Stocks were alliquoted and frozen -20°C.
The day before each assay a new standard row was prepared by dilution of the stock solution in assay buffer (1 mM acetic acid + 0.1% bovine serum albumin (BSA)). The following concentrations were prepared (depending on the ligand potency): 10^-5, 10^-6, 10^-7, 10^-7.5, 10^-8, 10^-8.5, 10^-9, 10^-10, 10^-11, 10^-12 M.
Cell cultures: The HEK293 cells are grown in (DMEM31966 glutamax supplemented with 10% FBS (fetal bovine serum) and 1% penicillin G and streptomycin) and incubated at 37°C with 10% CO2 in a humidified atmosphere. The cells were split as follows. HEK293 cells approximately 80% confluent was used. The cells were removed from the bottom of the bottle by removing the media (DMEM31966 glutamax supplemented with 10% FBS and 1% penicillin G and streptomycin), rinsed with 5 mL phosphate buffered saline (PBS) and shaken gently. The PBS was removed and cells were released from the bottom with trypsin (1-2 mL) and incubated for 2-3 min. The flasks were then turned gently to ensure complete release of the cells from the bottom. Then media was added to the cells, (5-8 mL was used to rinse the cells of the bottom, this process was repeated approximately 4 times using the same media). Cell suspension was then transferred to a new bottle (approximately 4 × 10^6 cells per 175 cm^2 flask) and 20 mL media was added. Cells were incubated at 37°C with 10% CO2 in a humidified atmosphere.
Transfection of cells: HEK293 cells were seeded out at the density of 8 × 10^6 cells per 175 cm^2 flask 1 day prior to the transfection. Before transfection of cells, the culture medium was aspirated and half of the standard volume was added. 40 µg receptor-containing plasmid (Neuromedin U receptor 1 (NMUR1) or Neuromedin U receptor 2 (NMUR2)) or "empty" vector plasmid (pcDNA3), as a negative control, was mixed with 60 µL […] CaCl2 and Tris-EDTA (TE) buffer (10 mM tris(hydroxymethyl)aminomethane hydrochloride (Tris HCl), 1 mM ethylenedinitrilotetraacetic acid (EDTA), pH 7.5) to a total volume of 480 µL. The mixture was added drop-wise to another tube containing 480 µL 2 × HEPES buffered saline (HBS buffer) (280 mM NaCl, 50 mM 4-(2-Hydroxyethyl)piperazine-1-ethanesulfonic acid (HEPES), 1.5 mM NaHPO4, pH 7.2) and left for 45 min at room temperature for DNA precipitation. Afterwards, the precipitate was added carefully to the cells and cells were incubated for 5 hours at normal culture conditions. The transfection was stopped by change of the DNA-containing medium with 20 mL of fresh cell culture medium.
Seeding of the cells in 96 well plates: One day after transfection, cells were harvested using trypsin as described above. The cells were seeded in a poly-D-lysine coated clear 96 well plate. 100 µL cell suspension 350.000 cells/mL was added. 3H-myo-inositol (5µL/mL) was added to each well yielding a concentration of 35000 cells/well. The cells were incubated overnight before assay procedure the following day.
IP3 SPA-ysi assay: The media was removed and the plates were washed with 200 µL of Hank's balanced salt solution (HBSS) (Gibco, Life Technologies). 100 µL of HBSS/10 mM LiCl was added and the plates were incubated 15 min at 37°C. 5 µL ligand was added to each well and the plate was incubated at 37°C for 70-90 min (incubation time was approximately 1 h and 16 min for all plates). The plates were placed on ice and 50 µL formic acid (10 mM) was added to each well. The plates was left on ice for at least 30 min. 20 µL was then transferred to a white 96 well plate and 80 µL yttrium silicate (YSi) SPA-beads RPNQ0010 (Perkin Elmer) solution (0.0125 g/mL) is added to each well. The plates were sealed and shaken on high speed for 30 min, then centrifuged for 5 min at 1500 rpm and counted with 8 hours delay in the top counter. […]

Starred links: 1 amine or outer side, 2 acyl side, 3 side chain; linkers in the order of their positions; H or OH if unused. Residues, ends and D or L forms follow the SMILES beside them. Groups on a side chain read outwards from the residue. *: point of attachment. γGlu = O=C(O)[C@H](CCC(=O)[*:2])N[*:1]; Palmitoyl = CCCCCCCCCCCCCCCC(=O)*

T1 sequence (Q9GZQ4 whole entry): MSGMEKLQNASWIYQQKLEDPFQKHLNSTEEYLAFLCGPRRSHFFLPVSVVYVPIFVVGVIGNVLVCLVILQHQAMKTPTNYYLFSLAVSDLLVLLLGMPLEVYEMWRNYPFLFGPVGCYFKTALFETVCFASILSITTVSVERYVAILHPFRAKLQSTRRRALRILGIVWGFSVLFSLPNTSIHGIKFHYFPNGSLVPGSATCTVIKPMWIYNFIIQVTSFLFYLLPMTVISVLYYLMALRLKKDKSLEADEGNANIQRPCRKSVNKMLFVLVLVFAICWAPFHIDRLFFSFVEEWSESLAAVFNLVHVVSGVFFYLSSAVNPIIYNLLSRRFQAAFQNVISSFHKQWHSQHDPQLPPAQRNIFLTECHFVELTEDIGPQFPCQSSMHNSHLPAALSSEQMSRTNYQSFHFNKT

The EC50 is the concentration at which the effect is half-maximal. Low readings indicate greater potency, high ones weaker potency. Regarding `CCCCCCCCCCCCCCCC(=O)N[C@@H](CCC(=O)NCCCC[C@H](NC(=O)[C@H](CCC(N)=O)NC(=O)[C@H](CO)NC(=O)[C@H](C)NC(=O)[C@H](Cc1ccccc1)NC(=O)[C@@H]1CCCN1C(=O)[C@H](CO)NC(=O)[C@H](CCC(N)=O)NC(=O)[C@H](Cc1ccccc1)NC(=O)[C@H](CCC(=O)O)NC(=O)[C@H](CCC(=O)O)NC(=O)[C@H](CC(=O)O)NC(=O)[C@@H](NC(=O)[C@H](CCCNC(=N)N)NC(=O)[C@@H](N)Cc1ccccc1)C(C)C)C(=O)N[C@@H](CCCNC(=N)N)C(=O)NCC(=O)N[C@@H](Cc1ccc(O)cc1)C(=O)N[C@@H](Cc1ccccc1)C(=O)N[C@@H](CC(C)C)C(=O)N[C@@H](Cc1ccccc1)C(=O)N[C@@H](CCCNC(=N)N)C(=O)N1CCC[C@H]1C(=O)N[C@@H](CCCNC(=N)N)C(=O)N[C@@H](CC(N)=O)C(N)=O)C(=O)O` [SEQ ID NO 5] (H-FRVDEEFQSPFASQK([γGlu-Palmitoyl])RGYFLFRPRN-NH2), the EC50 came out at 162 nM.

For `CCCCCCCCCCCCCCCC(=O)N[C@@H](CCC(=O)NCCCC[C@H](NC(=O)[C@H](C)NC(=O)[C@H](Cc1ccccc1)NC(=O)[C@@H]1CCCN1C(=O)[C@H](CO)NC(=O)[C@H](CCC(N)=O)NC(=O)[C@H](Cc1ccccc1)NC(=O)[C@H](CCC(=O)O)NC(=O)[C@H](CCC(=O)O)NC(=O)[C@H](CC(=O)O)NC(=O)[C@@H](NC(=O)[C@H](CCCNC(=N)N)NC(=O)[C@@H](N)Cc1ccccc1)C(C)C)C(=O)N[C@@H](CCC(N)=O)C(=O)N[C@@H](CO)C(=O)N[C@@H](CCCNC(=N)N)C(=O)NCC(=O)N[C@@H](Cc1ccc(O)cc1)C(=O)N[C@@H](Cc1ccccc1)C(=O)N[C@@H](CC(C)C)C(=O)N[C@@H](Cc1ccccc1)C(=O)N[C@@H](CCCNC(=N)N)C(=O)N1CCC[C@H]1C(=O)N[C@@H](CCCNC(=N)N)C(=O)N[C@@H](CC(N)=O)C(N)=O)C(=O)O` [SEQ ID NO 8] (H-FRVDEEFQSPFAK([γGlu-Palmitoyl])QSRGYFLFRPRN-NH2), the EC50 was determined as 155 nM. The compound `CCCCCCCCCCCCCCCC(=O)N[C@@H](CCC(=O)NCCCC[C@H](NC(=O)[C@H](CCC(=O)O)NC(=O)[C@H](CC(=O)O)NC(=O)[C@@H](NC(=O)[C@H](CCCNC(=N)N)NC(=O)[C@@H](N)Cc1ccccc1)C(C)C)C(=O)N[C@@H](Cc1ccccc1)C(=O)N[C@@H](CCC(N)=O)C(=O)N[C@@H](CO)C(=O)N1CCC[C@H]1C(=O)N[C@@H](Cc1ccccc1)C(=O)N[C@@H](C)C(=O)N[C@@H](CO)C(=O)N[C@@H](CCC(N)=O)C(=O)N[C@@H](CO)C(=O)N[C@@H](CCCNC(=N)N)C(=O)NCC(=O)N[C@@H](Cc1ccc(O)cc1)C(=O)N[C@@H](Cc1ccccc1)C(=O)N[C@@H](CC(C)C)C(=O)N[C@@H](Cc1ccccc1)C(=O)N[C@@H](CCCNC(=N)N)C(=O)N1CCC[C@H]1C(=O)N[C@@H](CCCNC(=N)N)C(=O)N[C@@H](CC(N)=O)C(N)=O)C(=O)O` [SEQ ID NO 14] (H-FRVDEK([γGlu-Palmitoyl])FQSPFASQSRGYFLFRPRN-NH2) registered an EC50 of 52.8 nM.

`CCCCCCCCCCCCCCCC(=O)N[C@@H](CCC(=O)NCCCC[C@H](NC(=O)[C@@H](NC(=O)[C@H](CCCNC(=N)N)NC(=O)[C@@H](N)Cc1ccccc1)C(C)C)C(=O)N[C@@H](CCC(=O)O)C(=O)N[C@@H](CCC(=O)O)C(=O)N[C@@H](Cc1ccccc1)C(=O)N[C@@H](CCC(N)=O)C(=O)N[C@@H](CO)C(=O)N1CCC[C@H]1C(=O)N[C@@H](Cc1ccccc1)C(=O)N[C@@H](C)C(=O)N[C@@H](CO)C(=O)N[C@@H](CCC(N)=O)C(=O)N[C@@H](CO)C(=O)N[C@@H](CCCNC(=N)N)C(=O)NCC(=O)N[C@@H](Cc1ccc(O)cc1)C(=O)N[C@@H](Cc1ccccc1)C(=O)N[C@@H](CC(C)C)C(=O)N[C@@H](Cc1ccccc1)C(=O)N[C@@H](CCCNC(=N)N)C(=O)N1CCC[C@H]1C(=O)N[C@@H](CCCNC(=N)N)C(=O)N[C@@H](CC(N)=O)C(N)=O)C(=O)O` [SEQ ID NO 17] (H-FRVK([γGlu-Palmitoyl])EEFQSPFASQSRGYFLFRPRN-NH2) displayed an EC50 of 50.5 nM.
